Patent US20220356186A1, “PERK INHIBITING PYRROLOPYRIMIDINE COMPOUNDS” (HiberCell, Inc., priority 2019, published 2022)
Where two headings read alike, the source gives them in different places.

Columns and labels:
[1] = molecular target: T1, EIF2AK3 (PERK) catalytic domain (amino acids 536-1116) (Homo sapiens, UniProt Q9NZJ5); experiment: PERK in vitro activity assay (isolated), TR-FRET kinase assay; assay type: biochemical; conditions: isolated PERK enzyme, 1.5 μM ATP; read-out: Biochemical IC50
T1 construct: EIF2AK3 (PERK) catalytic domain (amino acids 536-1116)
T1 sequence (Q9NZJ5 536-1116): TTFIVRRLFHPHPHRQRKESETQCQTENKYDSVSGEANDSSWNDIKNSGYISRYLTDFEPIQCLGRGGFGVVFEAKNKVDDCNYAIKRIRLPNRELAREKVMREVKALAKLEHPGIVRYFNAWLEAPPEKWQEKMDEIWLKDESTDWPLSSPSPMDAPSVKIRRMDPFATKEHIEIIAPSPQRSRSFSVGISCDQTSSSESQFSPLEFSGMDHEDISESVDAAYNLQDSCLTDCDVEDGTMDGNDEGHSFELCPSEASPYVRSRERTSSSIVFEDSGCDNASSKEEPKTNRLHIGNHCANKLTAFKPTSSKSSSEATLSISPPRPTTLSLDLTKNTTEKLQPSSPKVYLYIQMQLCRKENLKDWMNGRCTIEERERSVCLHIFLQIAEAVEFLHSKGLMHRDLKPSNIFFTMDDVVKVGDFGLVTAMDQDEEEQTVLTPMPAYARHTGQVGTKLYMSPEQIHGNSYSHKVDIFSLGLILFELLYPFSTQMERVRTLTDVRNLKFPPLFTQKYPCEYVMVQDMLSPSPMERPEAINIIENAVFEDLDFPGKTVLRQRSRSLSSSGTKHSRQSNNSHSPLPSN
Method in brief: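 Human PERK catalytic domain (aa 536-1116) phosphorylating 100-200 nM GFP-eIF2a in 50 mM HEPES pH 7.5, 10 mM MgCl2, 1 mM EGTA, 0.01% Brij-35; enzyme-started, 45 min at room temperature. Stopped with 10 mM EDTA, 2 nM Tb-anti-phospho-eIF2a added for 90 min; IC50 from TR-FRET ratios by 4-parameter logistic fit.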

[2] = tested on: GFP-eIF2α in HEK293 cells; experiment: PERK cellular assay, TR-FRET in HEK293-EGFP-eIF2a cells after tunicamycin-induced ER stress; assay type: cell-based; conditions: HEK293-EGFP-eIF2a cells, tunicamycin 2 hours, read-out: Cellular eIF2α IC50
Method in brief: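 HEK293 cells stably expressing GFP-eIF2α, plated 5000 cells/well overnight, pretreated with inhibitors 30 min at 37 °C, then ER stress induced with tunicamycin […] for 2 h.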

| Compound | IC50 [1] [nM] | IC50 [2] [nM] | IC50 ([2]; Homo sapiens, HEK293, 2 h) [nM] |
| --- | --- | --- | --- |
| Cn1cc(-c2ccc(NC(=O)C(O)c3cccc(F)c3)cc2C(F)(F)F)c2c(N)ncnc21 (centres unmarked) [Example 16, N-(4-(4-amino-7-methyl-7H-pyrrolo[2,3-d]pyrimidin-5-yl)-3-(trifluoromethyl)phenyl)-2-(3-fluorophenyl)-2-hydroxyacetamide] | 1 to 25 |  | 101 to 250 |
| CCc1ccccc1CC(=O)Nc1ccc(-c2cn(C)c3ncnc(N)c23)c(C)c1 [Example 145, N-(4-(4-amino-7-methyl-7H-pyrrolo[2,3-d]pyrimidin-5-yl)-3-methylphenyl)-2-(2-ethylphenyl)acetamide] | 1 to 25 |  | 26 to 50 |
| Cc1cc(NC(=O)C(O)c2cccc(F)c2)cc(F)c1-c1cn(C)c2ncnc(N)c12 (centres unmarked) [Example 124, N-(4-(4-amino-7-methyl-7H-pyrrolo[2,3-d]pyrimidin-5-yl)-3-fluoro-5-methylphenyl)-2-(3-fluorophenyl)-2-hydroxyacetamide] | 1 to 25 |  | 1 to 25 |
| Cc1nc(N)c2c(-c3ccc(NC(=O)C(O)c4ccccc4C)cc3Cl)cn(C)c2n1 (centres unmarked) [Example 93, N-(4-(4-amino-2,7-dimethyl-7H-pyrrolo[2,3-d]pyrimidin-5-yl)-3-chlorophenyl)-2-hydroxy-2-(o-tolyl)acetamide] | 501 to 1000 | 2000 to 3000 |  |
| Cc1nc(N)c2c(-c3ccc(NC(=O)C(O)c4cccc(C(F)(F)F)c4)cc3C)cn(C)c2n1 (centres unmarked) [Example 49, N-(4-(4-amino-2,7-dimethyl-7H-pyrrolo[2,3-d]pyrimidin-5-yl)-3-methylphenyl)-2-hydroxy-2-(3-(trifluoromethyl)phenyl)acetamide] | 1 to 25 | 26 to 50 |  |
| Cc1nc(N)c2c(-c3ccc(NC(=O)C(O)c4cccc5cnn(C)c45)cc3C)cn(C)c2n1 (single isomer, unassigned) [Example 64, N-(4-(4-amino-2,7-dimethyl-7H-pyrrolo[2,3-d]pyrimidin-5-yl)-3-methylphenyl)-2-hydroxy-2-(1-methyl-1H-indazol-7-yl)acetamide] | 251 to 500 |  | 2000 to 3000 |

More lines, main results first:

| IC50 [1] [nM] | Compound | IC50 [2] [nM] | IC50 ([2]; Homo sapiens, HEK293, 2 h) [nM] |
| --- | --- | --- | --- |
| 26 to 50 | Cc1nc(N)c2c(-c3ccc(NC(=O)C(O)c4cc(F)cc(F)c4)cc3C)cn(C)c2n1 (centres unmarked) [Example 53, N-(4-(4-amino-2,7-dimethyl-7H-pyrrolo[2,3-d]pyrimidin-5-yl)-3-methylphenyl)-2-(3,5-difluorophenyl)-2-hydroxyacetamide] | 251 to 500 |  |
| 1 to 25 | Cc1nc(N)c2c(-c3ccc(NC(=O)C(O)c4cccc(Cl)c4)cc3Cl)cn(C)c2n1 (centres unmarked) [Example 99, N-(4-(4-amino-2,7-dimethyl-7H-pyrrolo[2,3-d]pyrimidin-5-yl)-3-chlorophenyl)-2-(3-chlorophenyl)-2-hydroxyacetamide] | 1 to 25 |  |
| 1 to 25 | Cc1cccc(C(O)C(=O)Nc2ccc(-c3cn(C)c4nc(C)nc(N)c34)c(F)c2)c1 (centres unmarked) [Example 74, N-(4-(4-amino-2,7-dimethyl-7H-pyrrolo[2,3-d]pyrimidin-5-yl)-3-fluorophenyl)-2-hydroxy-2-(m-tolyl)acetamide] | 1 to 25 |  |
| 1 to 25 | Cc1cc(F)cc(C(O)C(=O)Nc2ccc(-c3cn(C)c4nc(C)nc(N)c34)c(F)c2)c1 (centres unmarked) [Example 85, N-(4-(4-amino-2,7-dimethyl-7H-pyrrolo[2,3-d]pyrimidin-5-yl)-3-fluorophenyl)-2-(3-fluoro-5-methylphenyl)-2-hydroxyacetamide] | 1 to 25 |  |
